pIC50: −log10 of the molar value.
Columns and labels:
[1] = biological target: T1, G protein-activated inward rectifier potassium channel 1 (Homo sapiens, UniProt P48549); assay: Inhibition of GIRK1/2 (unknown origin)
T1 sequence (P48549 whole entry): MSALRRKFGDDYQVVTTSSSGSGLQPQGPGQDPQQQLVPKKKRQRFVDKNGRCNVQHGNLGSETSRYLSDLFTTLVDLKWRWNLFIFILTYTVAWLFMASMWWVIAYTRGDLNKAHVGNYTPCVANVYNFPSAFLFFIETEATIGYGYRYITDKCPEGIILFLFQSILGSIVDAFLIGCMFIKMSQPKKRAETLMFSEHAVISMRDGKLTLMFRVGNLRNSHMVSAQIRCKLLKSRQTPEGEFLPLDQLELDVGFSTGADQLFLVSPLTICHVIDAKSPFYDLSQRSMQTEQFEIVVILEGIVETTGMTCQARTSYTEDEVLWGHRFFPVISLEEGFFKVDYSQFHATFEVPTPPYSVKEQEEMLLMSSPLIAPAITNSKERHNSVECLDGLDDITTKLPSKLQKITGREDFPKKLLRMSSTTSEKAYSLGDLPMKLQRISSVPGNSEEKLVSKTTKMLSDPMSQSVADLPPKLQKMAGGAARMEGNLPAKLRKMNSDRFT

[2] = biological target: T2, G protein-activated inward rectifier potassium channel 4 (Homo sapiens, UniProt P48544); assay: Inhibition of GIRK1/4 (unknown origin)
T2 sequence (P48544 whole entry): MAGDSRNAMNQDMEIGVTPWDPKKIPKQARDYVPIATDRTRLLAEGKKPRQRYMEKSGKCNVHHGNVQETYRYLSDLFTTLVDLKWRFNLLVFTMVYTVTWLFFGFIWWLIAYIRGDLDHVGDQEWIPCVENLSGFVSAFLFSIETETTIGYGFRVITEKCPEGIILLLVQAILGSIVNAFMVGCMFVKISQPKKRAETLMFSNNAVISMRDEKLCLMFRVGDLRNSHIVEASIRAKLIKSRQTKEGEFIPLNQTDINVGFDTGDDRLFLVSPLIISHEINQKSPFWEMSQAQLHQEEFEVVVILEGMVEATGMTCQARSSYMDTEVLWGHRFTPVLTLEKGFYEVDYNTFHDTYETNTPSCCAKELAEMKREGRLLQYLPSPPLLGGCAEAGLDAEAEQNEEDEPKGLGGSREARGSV

pIC50 [1]	pIC50 [2]	SMILES
4.52	4.52	O=C(Nc1ccc(F)c(F)c1)Nc1cc(C(F)(F)F)nn1-c1ccccc1
4.52	4.52	O=C(Nc1ccc(F)c(F)c1)Nc1cc(C2CCC2)nn1-c1ccccc1
4.52	4.52	O=C(Nc1ccc(F)c(F)c1)Nc1cc(-c2ccccc2)nn1-c1ccccc1
